Here are results for 2 compounds from patent US8772348B2, “Materials and methods for pest control” (priority 2009, dated 2014).

Where two headings read alike, the source gives them in different places.

Data set [1] has as its system Susceptible Musca domestica. The data set is described as follows: Glass jar contact bioassay, susceptible (laboratory) house flies. Particulars: for decline in toxicity after a 24-hour holding period subsequent to an initial 2-hour exposure: 2 h transferred vs 2 h constant. How it is done:
Briefly, adult house flies, Musca domestica, are obtained from strains that have been reared in the laboratory of the Entomology and Nematology Department, University of Florida. […] The positive control is exposed to serial dilutions of permethrin. The negative control is not exposed to any chemical compound. The mortality rate is measured after 2-hour, 4-hour, and 24-hour periods. Ataxic flies are considered dead.
The ability of house flies to recover from insecticidal exposure is also investigated. After a 2-hour exposure, each set of flies is transferred into a separate glass jar. The mortality rate is measured at two time intervals: first, immediately at the transfer (2 hours after the initial exposure), and second, 22 hours after the transfer (24 hours after the initial exposure).
The mortality rate is analyzed using the PROBIT model. The data is adjusted based on the mortality rate in the control set using the Abbott's transformation, and the percent mortality is further analyzed based on ANOVA measurement. The experiment is repeated at least three times. The data is discarded if the mortality rate in the control set exceeds 10%. The LC50 and LC90 values are further determined using the SAS (Cary, N.C., USA) statistical software. For each chemical compound, at least 1280 flies are examined.

Data set [2] has as its system Stomoxys calcitrans. How it is done: Briefly, one Stomoxys calcitrans strain is collected from the University of Florida dairy unit in Alachua County, Florida, U.S.A. (“the Alachua strain”) and subsequently reared at 27° C. in the laboratory of the Entomology and Nematology Department, University of Florida.
Each strain is divided into four sets: three sets as the experimental treatments and the other set as the control. […] The control set is not exposed to any chemical compound. The mortality rate is measured after a 2-hour, 4-hour, and 24-hour period. Ataxic flies are considered dead. The mortality rate and the LC values are determined using the same procedures as is illustrated in Example 2.

For data set [3], the system named is Susceptible Musca domestica. Particulars: for % mortality on various days following treatment: formulation on filter paper at LC99-based concentration of each compound. As to the method:
Briefly, after Musca domestica is exposed to formulations for 24 hours at the LC99 concentration specific for each compound, each set of flies is transferred into a separate glass jar, and held for another 24 hours when mortality is scored. The mortality rate is measured on multiple days with new sets of flies up to 14 days (Day 1 starts at 24 hours after the transfer). The mortality rate is determined using the same procedures as is illustrated in Example 2.
Concentrations were generated from technical-based LC99 values obtained following a 24 h-exposure period on filter paper. Paper was treated on day 0 and was held until exposure on post-treatment day. Control contained formulation ingredients without semiochemicals.

A further data set relates to Aedes aegypti. Conditions: EC formulation on military fabric. As to the method: A commercially-available permethrin 57 g L^−1 EC (Ectiban EC 57; Universal Cooperatives, Minneapolis, Minn.) was included for comparison. Except rosalva, the 50% EC semiochemical formulations were generated by combining 500 mL AI, 430 mL canola oil (Publix, Lakeland, Fla.), 10 mL xylene, 50 mL Triton X-100 (Acros Organics Nev., Fair Lawn, N.J.) and 10 mL Agsolex-8 (International Specialty Products, Wayne, N.J.). The rosalva formulation contained all of the above-mentioned ingredients, with canola oil concentration reduced to 400 mL L^−1, Triton X-100 concentration increased to 75 mL L^−1, and 5 mL L^−1 Antifoam B silicone emulsion (Mallinckrodt Baker, Phillipsburg, N.Y.) included.
Briefly, a piece of 10×10 cm^2 fabric (TenCate Defender™) is impregnated with 2 ml of serially diluted 20-emulsifiable concentrate or 50-emulsifiable concentrate formulations, respectively, and subsequently dried for about an hour. Also, six-to-ten-day-old, never blood-fed, adult female Ae. aegypti mosquitoes are obtained. The mosquitoes are divided into seven sets: three sets as the experiment, three sets as the positive control, and one set as the negative control. Each set consists of 20 mosquitoes. […] The positive control set is exposed to fabric pieces treated with geranyl acetone, rosalva or citronellol. The negative control set is exposed to fabric pieces treated with acetone solution. Throughout the exposure periods, each set is provided with 10% sucrose solution and sufficient air circulation. Ataxic mosquitoes are considered dead. The mortality rate and the LC values are determined using the same procedures as are illustrated in Example 2.

Data set [4] concerns Stomoxys calcitrans. As to the method: Briefly, each fly strain is divided into eight sets: three sets as the experiment, four sets as the positive control, and one set as the negative control. Flies are assayed on unpainted plywood panel boards that have been previously exposed to natural summer weather conditions for at least 10 days. […] The positive control set is treated with permethrin, geranyl acetone, rosalva or citronellol. The negative control set is treated with water. The formulation is applied at a uniform rate of 7.5 ml per 225 cm^2, sufficient to cover the entire panel without dripping. Subsequently, the treated panel boards are dried for about an hour.
In each set, 20 adult flies are placed onto the panel boards. Flies are secured with wooden embroidery hoops, covered with a coarse mesh screen cloth previously sprayed with the respective formulation. After 4 hours, flies are transferred into a clean jar. The mortality rate is measured 24 hours after the transfer, and is determined using the same procedures as are illustrated in Example 2.
Plywood panels (225 cm^2) were treated with chemicals at a rate of 1.67 mgcm^−2. Panels were treated on day 0 and held until exposure on post-treatment day. Mosquitoes were exposed to chemicals for 2 h, and mortality rate was assessed 24 h after initial exposure. Control contained formulation ingredients without semiochemicals.
This is another data set of the same source.

In data set [5] the test system is honey bees, Apis mellifera. Put plainly: Olfactory response assay in MEDUSA olfactometer, honey bee behaviors. The data set is classed as in vivo. Conditions: 0.25 mg semiochemical on perfumery strips; F7.72=0.705, p=0.67; data not shown.
Setting [6] is: 2 h constant exposure, glass jar.
Setting [7] is: 2 h exposure, transferred to clean jars, mortality 24 h after initial exposure.
Setting [8] is: 4 h constant exposure, glass jar.

`C/C=C/C(=O)C1=C(C)CCCC1(C)C` [Beta damascone, beta damascone]: the LC90 worked out at 78.46 μg cm^−2 in data set [1] (setting [6]); 74.63 μg cm^−2 in data set [1] (setting [7]); 53.59 μg cm^−2 in data set [1] (setting [8]); 34.57 μg cm^−2 in the data set with Stomoxys calcitrans [2] (2 h constant exposure); 29.68 μg cm^−2 in the data set with Stomoxys calcitrans [2] (4 h constant exposure); 20.33 μg cm^−2 in the data set with Stomoxys calcitrans [2] (24 h constant exposure). Further, the figures for the LC90 with Aedes aegypti (exposure period 2 hours), in the data set with Aedes aegypti (exposure period 4 hours) and in the data set on Aedes aegypti (exposure period 24 hours) were 910.52 μg cm^−2, 648.16 μg cm^−2 and 534.26 μg cm^−2, respectively. In addition, the “decline in toxicity after a 24-hour holding period subsequent to an initial 2-hour exposure” value in data set [1] was “no decline in toxicity”. The mortality rate in data set [1] (in vivo) is approximately 100%; in data set [3] (in vivo), 99%; with Stomoxys calcitrans [4] (in vivo) it was 99-100%. Further, the “attraction or repellence of honey bees (contact seconds per hour)” value in data set [5] was “do not attract or repel honey bees”.
With `CC1(C)CCCC2=C1CC(C=O)CC2` (centres unmarked) [Cyclemone A, 2-naphthaldehyde, 1,2,3,4,5,6,7,8-octahydro-8,8-dimethyl], the LC50 came out at 48.24 μg cm^−2 in data set [1] (setting [6]); 47.29 μg cm^−2 in data set [1] (setting [7]); 44.52 μg cm^−2 in data set [1] (setting [8]); 19.52 μg cm^−2 with Stomoxys calcitrans [2] (2 h constant exposure); 18.18 μg cm^−2 in the data set with Stomoxys calcitrans [2] (4 h constant exposure); 14.82 μg cm^−2 in the data set with Stomoxys calcitrans [2] (24 h constant exposure). Besides, the LC50 was 180.23 μg cm^−2 with Aedes aegypti (exposure period 2 hours), 172.56 μg cm^−2 in the data set on Aedes aegypti (exposure period 4 hours) and 136.19 μg cm^−2 with Aedes aegypti (exposure period 24 hours). The LC90 in data set [1] (setting [6]) is 69.90 μg cm^−2; in data set [1] (setting [7]) it was 68.95 μg cm^−2; in data set [1] (setting [8]), 71.44 μg cm^−2; with Stomoxys calcitrans [2] (2 h constant exposure) it was 31.31 μg cm^−2; with Stomoxys calcitrans [2] (4 h constant exposure), 32.38 μg cm^−2; in the data set with Stomoxys calcitrans [2] (24 h constant exposure), 27.10 μg cm^−2. In addition, the values for the LC90 in the data set with Aedes aegypti (exposure period 2 hours), in the data set with Aedes aegypti (exposure period 4 hours) and in the data set on Aedes aegypti (exposure period 24 hours) were 452.11 μg cm^−2, 488.13 μg cm^−2 and 330.22 μg cm^−2, respectively. In addition, in data set [1], the “decline in toxicity after a 24-hour holding period subsequent to an initial 2-hour exposure” value is “no decline in toxicity”. Moreover, the mortality rate in data set [1] (after 24-hour exposure) is on record as approximately 100%; in data set [3] (Day 1 and Day 2) it was 99%. In addition, the “% mortality on various days following treatment” value worked out at 96.25a % in data set [3] (day 1); 90.00a % in data set [3] (day 2); 80.00a % in data set [3] (day 3); 77.50ab % in data set [3] (day 5); 78.75a % in data set [3] (day 7); 63.75a % in data set [3] (day 8). For the same compound, in data set [3] (day 14), the “% mortality on various days following treatment” value is 6.25ab %. Besides, in the data set on Stomoxys calcitrans [4] (S. calcitrans, formulation on plywood panels at 1.67 mg cm^−2, mortality 24 h after), the “% mortality” value is on record as 100.00a %. The “attraction or repellence of honey bees (contact seconds per hour)” value in data set [5] is “do not attract or repel honey bees”.
